# Test results taken from ChEMBL document CHEMBL1128792, “Aromatic amino acid phosphoramidate di- and triesters of 3-azido-3-deoxythymidine (AZT) are non-toxic inhibitors of HIV-1 replication” (Bioorg Med Chem Lett, 1995).
# Key:
# CCRF-CEM = assay: Cytotoxic concentration towards CEM cells; assay type: functional; details: Homo sapiens
# [1] = Cytotoxic concentration towards peripheral blood mononuclear cells; assay type: functional; details: Homo sapiens
# [2] = biological target: Human immunodeficiency virus type 1 reverse transcriptase (Human immunodeficiency virus 1, UniProt Q72547); assay: Tested for the inhibition towards HIV-reverse transcriptase
# [3] = Effective molar concentration required to inhibit the replication of HIV-1 in human peripheral blood mononuclear cells by 50% (PBMC) was determined; assay type: functional
SMILES,CC50 (CCRF-CEM) [µM],CC50 [1] [µM],IC50 [2] [µM],EC50 [3] [µM]
COC(=O)[C@H](Cc1c[nH]c2ccccc12)NP(=O)(O)OC[C@H]1O[C@@H](n2cc(C)c(=O)[nH]c2=O)C[C@@H]1N=[N+]=[N-],> 100,> 100,> 100,0.01
COC(=O)[C@H](Cc1ccccc1)NP(=O)(O)OCC1OC(n2cc(C)c(=O)[nH]c2=O)CC1N=[N+]=[N-] (stereo partly specified),> 100,> 100,> 100,0.6
COC(=O)[C@H](Cc1c[nH]c2ccccc12)NP(=O)(OCCC#N)OCC1OC(n2cc(C)c(=O)[nH]c2=O)CC1N=[N+]=[N-] (stereo partly specified),> 100,> 100,> 100,0.4
COC(=O)[C@H](Cc1ccccc1)NP(=O)(OCCC#N)OCC1OC(n2cc(C)c(=O)[nH]c2=O)CC1N=[N+]=[N-] (stereo partly specified),> 100,> 100,> 100,> 1
COC(=O)[C@H](Cc1ccccc1)NP(=O)(OC)OCC1OC(n2cc(C)c(=O)[nH]c2=O)CC1N=[N+]=[N-] (stereo partly specified),> 50,> 100,–,0.09
COC(=O)[C@H](Cc1c[nH]c2ccccc12)NP(=O)(OC)OCC1OC(n2cc(C)c(=O)[nH]c2=O)CC1N=[N+]=[N-] (stereo partly specified),> 50,> 50,–,0.3
Cc1cn([C@H]2C[C@H](N=[N+]=[N-])[C@@H](CO)O2)c(=O)[nH]c1=O [ZIDOVUDINE],14.3,> 100,0.01,0.08
